Measured values from patent US9199959B2, “HIV replication inhibitor” (Shionogi & Co., Ltd., priority 2011, dated 2015).

Experiments:
[1] = molecular target: T1, CYP2D6 (Homo sapiens, UniProt P10635); assay: CYP inhibition assay, dextromethorphan O-demethylation; type: in vitro ADME; conditions: pooled human liver microsomes, probe dextromethorphan (O-demethylation), 5 μmol/L, pooled human hepatic microsome
T1 construct: enzyme, pooled human hepatic microsome 0.2 mg protein/mL; from tissue; host or cells: pooled human liver microsomes
T1 sequence (P10635 whole entry): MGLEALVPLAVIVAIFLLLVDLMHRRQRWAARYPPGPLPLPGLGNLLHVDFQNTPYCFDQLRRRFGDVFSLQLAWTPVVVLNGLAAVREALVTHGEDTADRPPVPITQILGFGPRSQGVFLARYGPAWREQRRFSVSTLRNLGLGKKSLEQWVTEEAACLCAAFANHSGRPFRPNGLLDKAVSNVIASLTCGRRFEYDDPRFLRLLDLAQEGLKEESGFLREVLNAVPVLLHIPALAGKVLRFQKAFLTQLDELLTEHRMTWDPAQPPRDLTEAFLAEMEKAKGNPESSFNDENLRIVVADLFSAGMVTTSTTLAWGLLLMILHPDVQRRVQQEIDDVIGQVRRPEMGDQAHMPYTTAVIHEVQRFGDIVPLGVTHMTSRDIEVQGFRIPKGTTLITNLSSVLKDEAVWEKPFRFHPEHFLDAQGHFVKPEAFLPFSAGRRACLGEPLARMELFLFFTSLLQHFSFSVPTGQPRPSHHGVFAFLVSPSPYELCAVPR
Protocol: Using commercially available pooled human hepatic microsome, and employing, as markers, 7-ethoxyresorufin O-deethylation (CYP1A2), tolbutamide methyl-hydroxylation (CYP2C9), mephenytoin 4′-hydroxylation (CYP2C19), dextromethorphan O-demethylation (CYP2D6), and terfenedine hydroxylation (CYP3A4) as typical substrate metabolism reactions of human main five CYP enzyme forms (CYP1A2, 2C9, 2C19, 2D6, 3A4), an inhibitory degree of each metabolite production amount by a test compound was assessed.
The reaction conditions were as follows: substrate, 0.5 μmol/L ethoxyresorufin (CYP1A2), 100 μmol/L tolbutamide (CYP2C9), 50 μmol/L S-mephenytoin (CYP2C19), 5 μmol/L dextromethorphan (CYP2D6), 1 μmol/L terfenedine (CYP3A4); reaction time, 15 minutes; reaction temperature, 37° C.; enzyme, pooled human hepatic microsome 0.2 mg protein/mL; test drug concentration, 1, 5, 10, 20 μmol/L (four points).
Each five kinds of substrates, human hepatic microsome, and a test drug in 50 mmol/L Hepes buffer as a reaction solution was added to a 96-well plate as the composition as described above, NADPH, as a cofactor was added to initiate metabolism reactions as markers and, after the incubation at 37° C. for 15 minutes, a methanol/acetonitrile=1/1 (v/v) solution was added to stop the reaction. After the centrifugation at 3000 rpm for 15 minutes, resorufin (CYP1A2 metabolite) in the supernatant was quantified by a fluorescent multilabel counter and tolbutamide hydroxide (CYP2C9 metabolite), mephenytoin 4′ hydroxide (CYP2C19 metabolite), dextrorphan (CYP2D6 metabolite), and terfenadine alcohol (CYP3A4 metabolite) were quantified by LC/MS/MS.
A reaction system containing only DMSO which is a solvent for dissolving a drug was adopted as a control (100%), and the remaining activity (%) was calculated, then IC50 was calculated by reverse presumption with a logistic model using a concentration and an inhibition rate.

[2] = Metabolism stability test, human liver microsomes; type: in vitro ADME; conditions: 30 minutes, 37° C., amount at 0 minute = 100%
Protocol: Commercially available pooled human hepatic microsomes and a test compound were reacted for a constant time, then a remaining rate was calculated by comparing a reacted sample and an unreacted sample, thereby a degree of metabolism of the test compound in liver was assessed. A reaction was performed (oxidative reaction) at 37° C. for 0 minute or 30 minutes in the presence of 1 mmol/L NADPH in 0.2 mL of a buffer (50 mmol/L Tris-HCl, pH 7.4, 150 mmol/L potassium chloride, 10 mmol/L magnesium chloride) containing 0.5 mg protein/mL of human liver microsomes. After the reaction, 50 μl, of the reaction solution was added to 100 μL of a methanol/acetonitrile=1/1 (v/v), mixed and centrifuged at 3000 rpm for 15 minutes. The test compound in the supernatant was quantified by LC/MS/MS, and a remaining amount of the test compound after the reaction was calculated, letting a compound amount at 0 minute reaction time to be 100%. Hydrolysis reaction was performed in the absence of NADPH and glucuronidation reaction was in the presence of 5 mM UDP-glucuronic acid in place of NADPH, followed by similar operations.

[3] = Metabolism stability test, rat liver microsomes; type: in vitro ADME; conditions: amount at 0 minute = 100%
[4] = Solubility test, 1% DMSO addition, artificial intestinal juice pH 6.8; type: physicochemical; conditions: artificial intestinal juice with 1% DMSO, fassgf or other biorelevant, kinetic from dmso stock; pH 6.8, 1% DMSO addition, 16 hours at 25° C.
Protocol: The solubility of each compound was determined under 1% DMSO addition conditions. A 10 mmol/L solution of the compound was prepared with DMSO, and 6 μL of the solution was added to 594 μL of an artificial intestinal juice (water and a 118 mL solution of 0.2 mol/L NaOH reagent are added to 250 mL of 0.2 mol/L potassium dihydrogen phosphate reagent to reach 1000 mL) with a pH of 6.8. The mixture is left standing for 16 hours at 25° C., and the mixture is vacuum-filtered. The filtrate is two-fold diluted with methanol/water=1/1 (v/v), and the compound concentration in the filtrate is measured with HPLC or LC/MS/MS by the absolute calibration method.

[5] = system: Salmonella typhimurium TA98 strain, TA100 strain; type: cell-based; conditions: Salmonella typhimurium TA98, TA100, non-metabolism and metabolism activating condition
Protocol: The mutagenicity of the compound of the present invention was assayed.
20 μL of freezing-stored rat typhoid bacillus (Salmonella typhimurium TA98 strain, TA100 strain) was inoculated on 10 mL of a liquid nutrient medium (2.5% Oxoid nutrient broth No. 2), and this was cultured before shaking at 37° C. for 10 hours. 9 mL of a bacterial solution of the TA98 strain was centrifuged (2000×g, 10 minutes) to remove a culturing solution. The bacteria was suspended in F buffer (K2HPO4: 3.5 g/L, KH2PO4: 1 g/L, (NH4)2SO4: 1 g/L, trisodium citrate dehydrate: 0.25 g/L, MgSO4.7H2O: 0.1 g/L), and the suspension was added to 110 mL of an Exposure medium (Micro F buffer containing Biotin: 8 μg/mL, histidine: 0.2 μg/mL, glucose: 8 mg/mL). The TA100 strain was added to 120 mL of the Exposure medium per 3.16 mL of the bacterial solution to prepare a test bacterial solution. […] of a test substance DMSO solution (several stage dilution from maximum dose 50 mg/mL at 2- to 3-fold ratio), DMSO as a negative control, 50 μg/mL of 4-nitroquinoline-1-oxide DMSO solution for the TA98 strain, 0.25 μg/mL of 2-(2-furyl)-3-(5-nitro-2-furyl)acrylamide DMSO solution for the TA100 strain each under the non-metabolism activating condition, 40 μg/mL of 2-aminoanthracene DMSO solution for the TA98 strain, 20 μg/mL of 2-aminoanthracene DMSO solution for the TA100 strain each under the metabolism activating condition all as a positive control, and 588 μL of the test bacterial solution (a mixed solution of 498 μL of the test bacterial solution and 90 μL of S9 mix under the metabolism activating condition) were mixed, and this was shaking-cultured at 37° C. for 90 minutes. […] Since a well containing a bacterium which has obtained the proliferation ability by mutation of an amino acid (histidine) synthesizing enzyme gene turns from purple to yellow due to a pH change, the bacterium proliferation well which has turned to yellow in 48 wells per dose is counted, and was assessed by comparing with a negative control group. […]

Question: For `CC(=O)Nc1c(C)c(C(OC(C)(C)C)C(=O)O)c(-c2ccc(C)c(C)c2)c(C)c1-c1ccc(C)c(C)c1` (centres unmarked) [Compound I-6], which IC50 at 15 min [1] is on record?
Answer: The IC50 at 15 min was no less than 20 µM.

Question: What about the “remaining amount of compound in liver microsomes of human” value [2] of the same molecule?
Answer: The value was 79%.

Question: What about the “remaining amount of compound in liver microsomes of rat” value [3] of the same molecule?
Answer: Its value is 58%.

Question: And the solubility at 16 h [4]?
Answer: Its solubility at 16 h is no less than 50 µM.

Question: And the mutagenicity [5]?
Answer: The mutagenicity was “negative”.
